The results in this text go back to patent US20090221567A1, “MUSCARINIC RECEPTOR AGONISTS, COMPOSITIONS, METHODS OF TREATMENT THEREOF, AND PROCESSES FOR PREPARATION THEREOF 177” (ASTRAZENECA AB, priority 2008, published 2009).

Assay [1] addresses T1, human M2 receptor (human Muscarinic receptor subtype 2) (Homo sapiens, UniProt P08172).
T1 construct: purchased Perkin-Elmer RBHM2M; host or cells: membranes from CHO cells expressing the cloned receptor
T1 sequence (P08172 1-466): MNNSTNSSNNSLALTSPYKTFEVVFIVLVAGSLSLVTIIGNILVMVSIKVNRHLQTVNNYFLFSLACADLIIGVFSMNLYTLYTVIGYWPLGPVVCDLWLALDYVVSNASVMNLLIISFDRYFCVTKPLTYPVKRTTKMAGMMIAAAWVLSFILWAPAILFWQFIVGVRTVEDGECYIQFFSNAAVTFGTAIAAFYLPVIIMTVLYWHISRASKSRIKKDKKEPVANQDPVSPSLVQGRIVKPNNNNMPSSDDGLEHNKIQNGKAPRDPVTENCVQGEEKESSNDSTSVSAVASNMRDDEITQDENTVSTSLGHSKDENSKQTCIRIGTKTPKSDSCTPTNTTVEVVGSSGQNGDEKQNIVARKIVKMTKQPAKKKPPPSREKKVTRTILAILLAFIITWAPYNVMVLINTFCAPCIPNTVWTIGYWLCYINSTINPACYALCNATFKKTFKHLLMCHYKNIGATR
The experiment in a line: hM2 receptor GTPγS binding. The settings on record: CHO membranes, [35S]GTPγS binding. It is filed as biochemical. Here is the method: Membranes produced from Chinese hamster ovary cells (CHO) expressing the cloned human M2 receptor (human Muscarinic receptor subtype 2, gene bank access NM_000739), are obtained from Perkin-Elmer (RBHM2M). The membranes are thawed at 37° C., passed 3 times through a 23-gauge blunt-end needle, diluted in the GTPγS binding buffer (50 mM Hepes, 20 mM NaOH, 100 mM NaCl, 1 mM EDTA, 5 mM MgCl2, pH 7.4, 100 μM DTT). The EC50, IC50 and Emax of the compounds of the invention are evaluated from 10-point dose-response curves (three fold concentration range) done in 60 μl in 384-well non-specific binding surface plate (Corning). Ten microliters from the dose-response curves plate (5× concentration) are transferred to another 384 well plate containing 25 μl of the following: 5 μg of hM2 membranes, 500 μg of Flashblue beads (Perkin-Elmer) and GDP 25 μM. An additional 15 μl containing 3.3× (60,000 dpm) of GTPγ^35S (0.4 nM final) are added to the wells resulting in a total well volume of 50 μl. Basal and maximal stimulated [^35S]GTPγS binding are determined in absence and presence of 30 μM final of acetylcholine agonist. The membranes/beads mix are pre-incubated for 15 minutes at room temperature with 25 μM GDP prior to distribution in plates (12.5 μM final). The reversal of acetylcholine-induced stimulation (2 μM final) of [^35S]GTPγS binding is used to assay the antagonist properties (IC50) of the compounds. The plates are incubated for 60 minutes at room temperature then centrifuged at 400 rpm for 5 minutes. The radioactivity (cpm) is counted in a Trilux (Perkin-Elmer).
Values of EC50, IC50 and Emax are obtained using sigmoidal fits of a non-linear curve-fitting program (XLfit version 4.2.2 Excel add-in version 4.2.2 build 18 math 1Q version 2.1.2 build 18) of percent stimulated [^35S]GTPγS binding vs. log(molar ligand). All pEC50 and pIC50 values are reported as arithmetic means±standard error of mean of ‘n’ independent experiments.
Background: Binding of GTPγS marks nucleotide exchange on a G protein.

Assay [2] deals with T2, hM3 (human Muscarinic receptor subtype 3) (Homo sapiens, UniProt P20309).
T2 construct: expressed in transfected cells; host or cells: CHO cells (Chinese hamster ovary cells, ATCC)
Nature of the assay: Human M3 calcium mobilization FLIPR assay. It is filed as cell-based. As to conditions: receptor expressed in CHO cells, intracellular Ca2+ release. Here is the method: The compound activity in the present invention (EC50 or IC50) is measured using a 384 plate-based imaging assay that monitors drug induced intracellular Ca^2+ release in whole cells. Activation of hM1 (human Muscarinic receptor subtype 1, gene bank access NM_000738), rM1 (rat Muscarinic receptor subtype 1, gene bank access NM_080773), hM3 (human Muscarinic receptor subtype 3, gene bank access NM_000740NM_000740) and hM5 (human Muscarinic receptor subtype 5, gene bank access NM_0121258), receptors expressed in CHO cells (Chinese hamster ovary cells, ATCC) is quantified in a Molecular Devices FLIPR IITM instrument as an increase in fluorescent signal. Inhibition of hM3 and hM5 by compounds is determined by the decrease in fluorescent signal in response to 2 nM acetylcholine activation.
Prior to experiment, the cell culture medium is removed from the plates by inversion. […] Plates are incubated at 37° C. for 60 minutes prior to start the experiment. The incubation is terminated by washing the cells four times in assay buffer, leaving a residual 25 μl buffer per well. Cell plates are then transferred to the FLIPR, ready for compound additions.
The day of experiment, acetylcholine and compounds are diluted in assay buffer in three-fold concentration range (10 points serial dilution) for addition by FLIPR instrument. For all calcium assays, a baseline reading is taken for 10 seconds followed by the addition of 12.5 μl of compounds, resulting in a total well volume of 37.5 μl. Data is collected every second for 60 pictures and then every 6 seconds for 20 pictures prior to the addition of agonist. For hM3 and hM5, before agonist addition, a second baseline reading is taken for 10 seconds followed by the addition of 12.5 μl of agonist or buffer, producing a final volume of 50 μl. After agonist stimulation, the FLIPR continues to collect data every second for 60 pictures and then every 6 seconds for 20 pictures. The fluorescence emission is read using filter 1 (emission 510-570 nm) by the FLIPR on board CCD camera.
Calcium mobilization output data are calculated as the maximal relative fluorescence unit (RFU) minus the minimal value for both compound and agonist reading frame (except for hM1 and rM1 using only the maximal RFU). Data are analyzed using sigmoidal fits of a non-linear curve-fitting program (XLfit version 4.2.2 Excel add-in version 4.2.2 build 18 math 1Q version 2.1.2 build 18). All pEC50 and pIC50 values are reported as arithmetic means±standard error of mean of ‘n’ independent experiments.

T2 sequence (P20309 whole entry): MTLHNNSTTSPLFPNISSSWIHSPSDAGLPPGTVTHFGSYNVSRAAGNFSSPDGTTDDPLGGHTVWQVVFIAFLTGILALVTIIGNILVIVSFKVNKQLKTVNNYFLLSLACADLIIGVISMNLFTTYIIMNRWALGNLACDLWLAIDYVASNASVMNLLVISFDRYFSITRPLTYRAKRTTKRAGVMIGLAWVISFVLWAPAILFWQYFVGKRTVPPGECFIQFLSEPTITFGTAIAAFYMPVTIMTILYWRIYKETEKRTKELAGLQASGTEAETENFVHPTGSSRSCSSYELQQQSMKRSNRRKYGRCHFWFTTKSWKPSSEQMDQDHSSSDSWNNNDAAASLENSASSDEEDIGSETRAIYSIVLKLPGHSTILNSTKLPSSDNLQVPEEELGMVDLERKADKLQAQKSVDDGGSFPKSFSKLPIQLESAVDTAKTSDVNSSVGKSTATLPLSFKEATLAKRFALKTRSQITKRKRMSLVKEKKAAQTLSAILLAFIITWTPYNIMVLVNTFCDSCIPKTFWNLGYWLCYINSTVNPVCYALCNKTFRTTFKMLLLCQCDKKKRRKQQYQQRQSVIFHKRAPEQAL

As usually defined, the EC50 is the concentration that produces a half-maximal response. For the compound `CCOC(=O)N1CCC(C)(N2CCC(N3C(=O)CO[C@H]4CCCC[C@@H]43)CC2)C1` (single isomer, unassigned) [Example 18], the figures for the EC50 in assay [1] and in assay [2] were 3.7 µM and > 40 µM, respectively. The corresponding values for `CCOC(=O)N1CCC(C)(N2CCC(N3C(=O)CO[C@H]4CCCC[C@@H]43)CC2)C1` (single isomer, unassigned) [Example 19] are > 40 µM and > 40 µM. For `CCOC(=O)N1CCC(N2CCC(N3C(=O)NC[C@H]4CCCC[C@@H]43)CC2)CC1` [Example 1, Ethyl 4-[4-[(4aR,8aS)-2-oxo-3,4,4a,5,6,7,8,8a-octahydroquinazolin-1-y]-1-piperidyl]piperidine-1-carboxylate], in assay [1], a half-maximal response (EC50) required 0.38 µM. `CC(C)OC(=O)N1CCC(N2CCC(N3C(=O)NC[C@H]4CCCC[C@@H]43)CC2)CC1` [Example 2, Propan-2-yl 4-[4-[(4aR,8aS)-2-oxo-3,4,4a,5,6,7,8,8a-octahydroquinazolin-1-yl]-1-piperidyl]piperidine-1-carboxylate]: the concentration giving a half-maximal response (EC50) in assay [1] is > 1.2 µM; in assay [2] it was > 49 µM. Turning to `O=C(C1CC1)N1CCC(N2CCC(N3C(=O)NC[C@H]4CCCC[C@@H]43)CC2)CC1` [Example 3, (4aR,8aS)-1-[1-[1-(cyclopropanecarbonyl)-4-piperidyl]-4-piperidyl]-3,4,4a,5,6,7,8,8a-octahydroquinazolin-2-one], the 50% effective concentration (EC50) in assay [1] was > 12 µM; in assay [2], > 49 µM. Taken in the same sequence, the figures for `Cc1ccccc1C(=O)N1CCC(N2CCC(N3C(=O)NC[C@H]4CCCC[C@@H]43)CC2)CC1` [Example 4, (4aR,8aS)-1-[1-[1-(2-methylbenzoyl)-4-piperidyl]-4-piperidyl]-3,4,4a,5,6,7,8,8a-octahydroquinazolin-2-one] were > 30 µM and > 49 µM.

On to `CC(C)OC(=O)N1CCC(N2CCC(N3C(=O)N(C)C[C@H]4CCCC[C@@H]43)CC2)CC1` [Example 6, Propan-2-yl 4-[4-[(4aR,8aS)-3-methyl-2-oxo-4a,5,6,7,8,8a-hexahydro-4H-quinazolin-1-yl]-1-piperidyl]piperidine-1-carboxylate], for which the half-maximal effective concentration (EC50) in assay [1] was > 30 µM; in assay [2], > 40 µM. Taken in the same sequence, the figures for `CCOC(=O)N1CCC(C)(N2CCC(N3C(=O)NC[C@H]4CCCC[C@@H]43)CC2)CC1` [Example 7, Ethyl 4-[4-[(4aR,8aS)-2-oxo-3,4,4a,5,6,7,8,8a-octahydroquinazolin-1-yl]-1-piperidyl]-4-methyl-piperidine-1-carboxylate] were 0.07 µM and 0.69 µM. Taken in the same sequence, the figures for `CC(C)OC(=O)N1CCC(C)(N2CCC(N3C(=O)NC[C@H]4CCCC[C@@H]43)CC2)CC1` [Example 8, Propan-2-yl 4-[4-[(4aR,8aS)-2-oxo-3,4,4a,5,6,7,8,8a-octahydroquinazolin-1-yl]-1-piperidyl]-4-methyl-piperidine-1-carboxylate] were > 30 µM and > 40 µM.

For `CCOC(=O)N1CCC(N2CCC(N3C(=O)CO[C@H]4CCCC[C@@H]43)CC2)CC1` [Example 9, Ethyl 4-[4-[(1S,6S)-9-oxo-7-oxa-10-azabicyclo[4.4.0]dec-10-yl]-1-piperidyl]piperidine-1-carboxylate], the EC50 was 2.5 µM in assay [1] and > 40 µM in assay [2]. The corresponding values for `CC(C)OC(=O)N1CCC(N2CCC(N3C(=O)CO[C@H]4CCCC[C@@H]43)CC2)CC1` [Example 10, Propan-2-yl 4-[4-[(1S,6S)-9-oxo-7-oxa-10-azabicyclo[4.4.0]dec-10-yl]-1-piperidyl]piperidine-1-carboxylate] are > 6.6 µM and > 40 µM. The corresponding values for `Cc1ccccc1C(=O)N1CCC(N2CCC(N3C(=O)CO[C@H]4CCCC[C@@H]43)CC2)CC1` [Example 11, (1S,6S)-10-[1-[1-(2-methylbenzoyl)-4-piperidyl]-4-piperidyl]-7-oxa-10-azabicyclo[4.4.0]decan-9-one] are > 30 µM and > 40 µM. As to `Cn1cccc1C(=O)N1CCC(N2CCC(N3C(=O)CO[C@H]4CCCC[C@@H]43)CC2)CC1` [Example 12, (1S,6S)-10-[1-[1-(1-methylpyrrole-2-carbonyl)-4-piperidyl]-4-piperidyl]-7-oxa-10-azabicyclo[4.4.0]decan-9-one], the half-maximal effective concentration (EC50) in assay [1] was > 30 µM; in assay [2] it was > 40 µM.

Regarding `CCOC(=O)N1CC[C@H](N2CCC(N3C(=O)CO[C@H]4CCCC[C@@H]43)CC2)C1` [Example 13, Ethyl (3S)-3-[4-[(1S,6S)-9-oxo-7-oxa-10-azabicyclo[4.4.0]dec-10-yl]-1-piperidyl]pyrrolidine-1-carboxylate], the concentration giving a half-maximal response (EC50) in assay [1] was > 30 µM; in assay [2] it was > 40 µM.

With `CC(C)OC(=O)N1CCC(N2CCC(N3C(=O)CO[C@@H]4CCCC[C@H]43)CC2)CC1` [Example 14, Propan-2-yl 4-[4-[(1R,6R)-9-oxo-7-oxa-10-azabicyclo[4.4.0]dec-10yl]-1-piperidyl]piperidine-1-carboxylate], the results for the EC50 in assay [1] and in assay [2] were > 30 µM and > 40 µM, respectively. The corresponding values for `CCOC(=O)N1CCC(N2CCC(N3C(=O)OC[C@H]4CCCC[C@@H]43)CC2)CC1` [Example 15, Ethyl 4-[4-[(1S,6S)-9-oxo-8-oxa-10-azabicyclo[4.4.0]dec-10-yl]-1-piperidyl]piperidine-1-carboxylate] are > 12 µM and > 40 µM.
